Among the data in US9523100B2, “Pesticidal compositions and related methods” (DOW AGROSCIENCES LLC, priority 2013, dated 2016) are mortality values, retold here.

Test [1] deals with Green Peach Aphid (GPA) (Myzus persicae) (MYZUPE). Description: Bioassay for Green Peach Aphid (GPA), foliar spray on cabbage seedlings. Format: in vivo. The settings on record: 72 h, 200 ppm foliar spray on cabbage seedlings, graded after three days, Abbott corrected % control, read-out: GPA 200 ppm, % Control (or Mortality) rating. The essentials:
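Cabbage seedlings infested with 20-50 GPA (wingless adults and nymphs) one day before spraying to runoff with 200 ppm compound; four pots per treatment. Live aphids counted after three days at ~25° C; percent control by Abbott's correction against solvent-sprayed plants.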

Test [2] concerns Sweetpotato Whitefly-Crawler (WF) (Bemisia tabaci) (BEMITA). The test is described as follows: Insecticidal test for Sweetpotato Whitefly-Crawler (WF) in foliar spray assay on cotton plants. Format: in vivo. To be noted: 216 h, 200 ppm foliar spray on cotton plants, graded after 9 days, Abbott corrected % control, read-out: WF 200 ppm, % Control (or Mortality) rating. The gist of the method:
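Cotton plants carrying 200–400 whitefly eggs sprayed to run-off on both leaf surfaces at 200 ppm (acetone/0.025% Tween 20), four plants per treatment. After 9 days at about 25 °C, live 3rd–4th instar nymphs counted; Abbott-corrected percent control versus solvent check.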

One may read the mortality as the percentage killed. On to `CCN(C(=O)CC/C(C)=N/OCCCC(F)(F)F)c1cn(-c2cccnc2)nc1Cl` [FA19, (E/Z)-N-(3-Chloro-1-(pyridin-3-yl)-1H-pyrazol-4-yl)-N-ethyl-4-((4,4,4-trifluorobutoxy)imino) pentanamide], for which the results for the mortality at 200 ppm in test [1] and in test [2] were 0 to 80% and 80 to 100%, respectively.

Regarding `CCN(C(=O)CC/C(C)=N/OCCCCF)c1cn(-c2cccnc2)nc1Cl` [FA20, (E/Z)-N-(3-chloro-1-(pyridin-3-yl)-1H-pyrazol-4-yl)-N-ethyl-4-((4-fluorobutoxy)imino)pentanamide], the mortality at 200 ppm in test [1] and in test [2] was 80 to 100% in each case.

In the case of `CCN(C(=O)CC/C(C)=N/OCc1ccc(C(F)(F)F)nc1)c1cn(-c2cccnc2)nc1Cl` [FA22, (E/Z)-N-(3-Chloro-1-(pyridin-3-yl)-1H-pyrazol-4-yl)-N-ethyl-4-(((6-(trifluoromethyl)pyridin-3-yl)methoxy)imino)pentanamide], the mortality at 200 ppm is 0 to 80% in test [1] and 80 to 100% in test [2].

`CCN(C(=O)CC/C(=N\OCCCC(F)(F)F)c1cccs1)c1cn(-c2cccnc2)nc1Cl` [FA26, (E)-N-(3-Chloro-1-(pyridin-3-yl)-1H-pyrazol-4-yl)-N-ethyl-4-(thiophen-2-yl)-4-((4,4,4-trifluorobutoxy)imino)butanamide]: the mortality at 200 ppm in test [1] is 0 to 80%; in test [2] it was 80 to 100%.

Turning to `CCN(C(=O)CC/C(=N/OCCCC(F)(F)F)c1cccs1)c1cn(-c2cccnc2)nc1Cl` [FA27, (Z)-N-(3-Chloro-1-(pyridin-3-yl)-1H-pyrazol-4-yl)-N-ethyl-4-(thiophen-2-yl)-4-((4,4,4-trifluorobutoxy)imino)butanamide], the mortality at 200 ppm in test [1] and in test [2] was 0 to 80% throughout.

As for `CCN(C(=O)CC/C(=N\OCCCCC(F)(F)F)c1cccs1)c1cn(-c2cccnc2)nc1Cl` [FA28, (E)-N-(3-Chloro-1-(pyridin-3-yl)-1H-pyrazol-4-yl)-N-ethyl-4-(thiophen-2-yl)-4-(((5,5,5-trifluoropentyl)oxy)imino)butanamide], the mortality at 200 ppm in test [1] and in test [2] was 0 to 80% each time.

As to `CCN(C(=O)CC/C(=N/OCCCCC(F)(F)F)c1cccs1)c1cn(-c2cccnc2)nc1Cl` [FA29, (Z)-N-(3-Chloro-1-(pyridin-3-yl)-1H-pyrazol-4-yl)-N-ethyl-4-(thiophen-2-yl)-4-(((5,5,5-trifluoropentyl)oxy)imino)butanamide], the mortality at 200 ppm in test [1] was in the range of 0 to 80%; in test [2], 80 to 100%.

Consider `CCN(C(=O)CC/C(=N\OCC1CC(F)(F)C1)c1cccs1)c1cn(-c2cccnc2)nc1Cl` [FA30, (E)-N-(3-Chloro-1-(pyridin-3-yl)-1H-pyrazol-4-yl)-4-(((3,3-difluorocyclobutyl)methoxy)imino)-N-ethyl-4-(thiophen-2-yl)butanamide], for which the mortality at 200 ppm in test [1] is less than 0%; in test [2], 0 to 80%.

Turning to `CCN(C(=O)CC/C(=N/OCC1CC(F)(F)C1)c1cccs1)c1cn(-c2cccnc2)nc1Cl` [FA31, (Z)-N-(3-Chloro-1-(pyridin-3-yl)-1H-pyrazol-4-yl)-4-(((3,3-difluorocyclobutyl)methoxy)imino)-N-ethyl-4-(thiophen-2-yl)butanamide], the mortality at 200 ppm is less than 0% in test [1] and 0 to 80% in test [2].

As for `CCN(C(=O)C1CCCCN1C(C)=O)c1cn(-c2cccnc2)nc1Cl` (stereo not drawn) [FA32, 1-Acetyl-N-(3-chloro-1-(pyridin-3-yl)-1H-pyrazol-4-yl)-N-ethylpiperidine-2-carboxamide], the mortality at 200 ppm in test [1] and in test [2] was 0 to 80% each time.

For the compound `CCN(C(=O)CCCN1CCCC1=O)c1cn(-c2cccnc2)nc1Cl` [FA33, N-(3-Chloro-1-(pyridin-3-yl)-1H-pyrazol-4-yl)-N-ethyl-4-(2-oxopyrrolidin-1-yl)butanamide], the mortality at 200 ppm in test [1] and in test [2] was 80 to 100% throughout.

With `CCN(C(=O)CCCN1CCOC1=O)c1cn(-c2cccnc2)nc1Cl` [FA34, N-(3-Chloro-1-(pyridin-3-yl)-1H-pyrazol-4-yl)-N-ethyl-4-(2-oxooxazolidin-3-yl)butanamide], the mortality at 200 ppm in test [1] and in test [2] was 80 to 100% throughout.

In the case of `CCN(C(=O)CC/C(=N/OCC(F)(F)F)c1cccs1)c1cn(-c2cccnc2)nc1Cl` [FA35, (E/Z)-N-(3-Chloro-1-(pyridin-3-yl)-1H-pyrazol-4-yl)-N-ethyl-4-(thiophen-2-yl)-4-((2,2,2-trifluoroethoxy)imino)butanamide], the mortality at 200 ppm lay within 0 to 80% in test [1] and 80 to 100% in test [2].

For `CCN(C(=O)CC/C(=N\OCc1ccc(C(F)(F)F)nc1)c1cccs1)c1cn(-c2cccnc2)nc1Cl` [FA36, (E)-N-(3-Chloro-1-(pyridin-3-yl)-1H-pyrazol-4-yl)-N-ethyl-4-(thiophen-2-yl)-4-(((6-(trifluoromethyl)pyridin-3-yl)methoxy)imino)butanamide], the mortality at 200 ppm in test [1] and in test [2] was 0 to 80% throughout.

As to `CCN(C(=O)CC/C(=N/OCc1ccc(C(F)(F)F)nc1)c1cccs1)c1cn(-c2cccnc2)nc1Cl` [FA37, (Z)-N-(3-Chloro-1-(pyridin-3-yl)-1H-pyrazol-4-yl)-N-ethyl-4-(thiophen-2-yl)-4-(((6-(trifluoromethyl)pyridin-3-yl)methoxy)imino)butanamide], the figures for the mortality at 200 ppm in test [1] and in test [2] were 0 to 80% and 80 to 100%, respectively.

Consider `CCN(C(=O)CC/C(=N\OCC1CC1(F)F)c1cccs1)c1cn(-c2cccnc2)nc1Cl` (stereo not drawn) [FA38, (E)-N-(3-Chloro-1-(pyridin-3-yl)-1H-pyrazol-4-yl)-4-(((2,2-difluorocyclopropyl)methoxy)imino)-N-ethyl-4-(thiophen-2-yl)butanamide], for which the mortality at 200 ppm in test [1] and in test [2] was 0 to 80% each time.

Regarding `CCN(C(=O)CC/C(=N/OCC1CC1(F)F)c1cccs1)c1cn(-c2cccnc2)nc1Cl` (stereo not drawn) [FA39, (Z)-N-(3-Chloro-1-(pyridin-3-yl)-1H-pyrazol-4-yl)-4-(((2,2-difluorocyclopropyl)methoxy)imino)-N-ethyl-4-(thiophen-2-yl)butanamide], the mortality at 200 ppm in test [1] and in test [2] was 0 to 80% throughout.

For the compound `CCN(C(=O)CC/C(C)=N/OCc1ccc(OC(F)(F)F)cc1)c1cn(-c2cccnc2)nc1Cl` [FA40, (E/Z)-N-(3-Chloro-1-(pyridin-3-yl)-1H-pyrazol-4-yl)-N-ethyl-4-(((4-(trifluoromethoxy)benzyl)oxy)imino)pentanamide], the mortality at 200 ppm lay in the range of 0 to 80% in test [1] and 80 to 100% in test [2].

With `CCN(C(=O)C1CCCN(C(=O)C(F)(F)F)C1)c1cn(-c2cccnc2)nc1Cl` (stereo not drawn) [FA41, N-(3-Chloro-1-(pyridin-3-yl)-1H-pyrazol-4-yl)-N-ethyl-1-(2,2,2-trifluoroacetyl)piperidine-3-carboxamide], the mortality at 200 ppm in test [1] lay in the range of 80 to 100%; in test [2] it was 0 to 80%.

Take `CCN(C(=O)C1CCCN(C(=O)CC(F)(F)F)C1)c1cn(-c2cccnc2)nc1Cl` (stereo not drawn) [FA42, N-(3-Chloro-1-(pyridin-3-yl)-1H-pyrazol-4-yl)-N-ethyl-1-(3,3,3-trifluoropropanoyl)piperidine-3-carboxamide]: the mortality at 200 ppm in test [1] was 80 to 100%; in test [2], 0 to 80%.

For `CCN(C(=O)C1CCCN(C(=O)CCC(F)(F)F)C1)c1cn(-c2cccnc2)nc1Cl` (stereo not drawn) [FA43, N-(3-Chloro-1-(pyridin-3-yl)-1H-pyrazol-4-yl)-N-ethyl-1-(4,4,4-trifluorobutanoyl)piperidine-3-carboxamide], the mortality at 200 ppm in test [1] and in test [2] was 80 to 100% in each case.

With `CCN(C(=O)C1CCCN(C(=O)CCC#N)C1)c1cn(-c2cccnc2)nc1Cl` (stereo not drawn) [FA44, N-(3-chloro-1-(pyridin-3-yl)-1H-pyrazol-4-yl)-1-(3-cyanopropanoyl)-N-ethylpiperidine-3-carboxamide], the mortality at 200 ppm in test [1] and in test [2] was 80 to 100% each time.

Take `CCN(C(=O)C1CCCN(C(C)=O)C1)c1cn(-c2cccnc2)nc1Cl` (stereo not drawn) [FA45, 1-Acetyl-N-(3-chloro-1-(pyridin-3-yl)-1H-pyrazol-4-yl)-N-ethylpiperidine-3-carboxamide]: the mortality at 200 ppm was in the range of 80 to 100% in test [1] and 0 to 80% in test [2].

Regarding `CCN(C(=O)CC/C(C)=N\O)c1cn(-c2cccnc2)nc1Cl` [FA46, (Z)-N-(3-Chloro-1-(pyridin-3-yl)-1H-pyrazol-4-yl)-N-ethyl-4-(hydroxyimino)pentanamide], the mortality at 200 ppm lay in the range of 0 to 80% in test [1] and 80 to 100% in test [2].

As for `CCN(C(=O)CC/C(C)=N\OCCC1CC1(F)F)c1cn(-c2cccnc2)nc1Cl` (stereo not drawn) [FA49, (Z)-N-(3-Chloro-1-(pyridin-3-yl)-1H-pyrazol-4-yl)-4-((2-(2,2-difluorocyclopropyl)ethoxy)imino)-N-ethylpentanamide], the mortality at 200 ppm in test [1] lay in the range of 0 to 80%; in test [2] it was 80 to 100%.

`CCN(C(=O)CC/C(C)=N/OCCC1CC1(F)F)c1cn(-c2cccnc2)nc1Cl` (stereo not drawn) [FA50, (E)-N-(3-Chloro-1-(pyridin-3-yl)-1H-pyrazol-4-yl)-4-((2-(2,2-difluorocyclopropyl)ethoxy)imino)-N-ethylpentanamide]: the mortality at 200 ppm in test [1] and in test [2] was 80 to 100% each time.

With `CCN(C(=O)C(C)C/C(C)=N\OCCC1CC1(F)F)c1cn(-c2cccnc2)nc1Cl` (stereo not drawn) [FA57, (Z)-N-(3-Chloro-1-(pyridin-3-yl)-1H-pyrazol-4-yl)-4-((2-(2,2-difluorocyclopropyl)ethoxy)imino)-N-ethyl-2-methylpentanamide], the mortality at 200 ppm in test [1] fell in the range of 80 to 100%; in test [2], 0 to 80%.
